Results on 33 molecules are retold here after ChEMBL document CHEMBL4354803, “Synthesis and biological activity of structurally diverse phthalazine derivatives: A systematic review” (Bioorg Med Chem, 2019).

A short description of test [1]: Inhibition of human HeLa cell derived PARP preincubated for 10 mins followed by NAD and double stranded DNA-oligos addition and measured after 45 mins by scintillation counting. The test is classed as cell-based.
The target of test [2] is Poly [ADP-ribose] polymerase 1 (Homo sapiens, UniProt P09874). Nature of the test: Inhibition of human PARP1 expressed in Escherichia coli incubated for 15 to 40 mins by ELISA.
Test [3] has as its target T1, NAD-dependent protein deacetylase sirtuin-1 (Homo sapiens) (UniProt Q96EB6).
T1 sequence (whole entry): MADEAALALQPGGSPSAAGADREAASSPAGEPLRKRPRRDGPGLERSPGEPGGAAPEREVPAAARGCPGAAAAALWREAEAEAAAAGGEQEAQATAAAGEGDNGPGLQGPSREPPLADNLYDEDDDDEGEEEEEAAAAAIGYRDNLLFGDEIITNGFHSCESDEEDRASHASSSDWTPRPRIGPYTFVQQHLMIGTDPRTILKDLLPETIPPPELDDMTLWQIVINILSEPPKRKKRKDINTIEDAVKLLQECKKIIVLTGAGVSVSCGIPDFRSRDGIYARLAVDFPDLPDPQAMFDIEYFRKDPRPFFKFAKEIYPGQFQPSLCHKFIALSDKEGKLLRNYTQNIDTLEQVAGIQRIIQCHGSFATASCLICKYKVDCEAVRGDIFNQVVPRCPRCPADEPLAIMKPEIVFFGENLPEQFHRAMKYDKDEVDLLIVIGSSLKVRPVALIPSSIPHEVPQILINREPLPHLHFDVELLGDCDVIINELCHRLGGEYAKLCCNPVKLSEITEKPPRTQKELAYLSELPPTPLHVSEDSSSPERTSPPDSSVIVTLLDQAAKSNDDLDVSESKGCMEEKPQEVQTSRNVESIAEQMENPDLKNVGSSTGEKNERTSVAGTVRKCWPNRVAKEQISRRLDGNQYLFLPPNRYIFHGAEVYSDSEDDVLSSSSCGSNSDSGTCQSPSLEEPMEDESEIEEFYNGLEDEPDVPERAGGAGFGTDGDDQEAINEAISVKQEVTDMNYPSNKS
Put plainly: Modulation of SIRT1 (unknown origin) expressed in Escherichia coli BL21(DE3) cells using Ac-EE-K(biotin)-GQSTSSHSK(Ac)NleSTEG-K(5TMR)-EE-NH2 as substrate after 25 mins by mass spectrometry.

For test [4], the system named is HepG2. Put plainly: cells. The settings on record: Homo sapiens, HepG2, 24 h.
Description: Cytotoxicity against human HepG2 cells after 24 hrs by MTT assay
The next test has as its system PC-3. Put plainly: Cytotoxicity against human PC3 cells after 24 hrs by MTT assay. Format: functional, cell-based. The settings on record: PC-3, 24 h.
The species entered for test [5] is Mus musculus. Put plainly: animal or person. The settings on record: ICR, ip.
Description: Anticonvulsant activity in ip dosed ICR mouse assessed as protection against 50 mA current-induced seizure pretreated for 30 mins followed by seizure induction measured for 60 mins by maximal electroshock seizure test
Test [6] deals with Mus musculus. Nature of the test: Anticonvulsant activity in ip dosed mouse assessed as protection against PTZ-induced seizure. The test is classed as functional.
Test [7] deals with Mus musculus. Put plainly: Antinociceptive activity in Balb/c mouse at 20 mg/kg, ip after 120 mins by tail flick test relative to control. The test is classed as functional.
Test [8] has as its target T2, Aldo-keto reductase family 1 member B1 (Homo sapiens, UniProt P15121). Nature of the test: Inhibition of human Aldose reductase.
The subject of a further test is Rattus norvegicus. Nature of the test: In vivo inhibition of Aldose reductase in streptozotocin-induced po dosed rat model of diabetes assessed as reduction in sorbitol accumulation in sciatic nerve administered at 4,7,24 hrs and measured at 27 hrs. The test is classed as functional.
A further test concerns Ehrlich. Nature of the test: Antitumor activity against mouse EAC cells implanted in Swiss albino mouse assessed as reduction in tumor growth at 5 mg/kg, ip dosed daily starting 6 days after inoculation. Format: functional, organism-based. The settings on record: 144 h.
Test [9] concerns HepG2. Put plainly: Cytotoxicity against human HepG2 cells incubated for 48 hrs by sulforhodamine B staining based ELISA. Format: functional, cell-based. The following applies: HepG2, 48 h.
Test [10] addresses T2, Aldo-keto reductase family 1 member B1.
Description: Inhibition of human placenta Aldose reductase

Chain of Poly [ADP-ribose] polymerase 1 (P09874 whole entry): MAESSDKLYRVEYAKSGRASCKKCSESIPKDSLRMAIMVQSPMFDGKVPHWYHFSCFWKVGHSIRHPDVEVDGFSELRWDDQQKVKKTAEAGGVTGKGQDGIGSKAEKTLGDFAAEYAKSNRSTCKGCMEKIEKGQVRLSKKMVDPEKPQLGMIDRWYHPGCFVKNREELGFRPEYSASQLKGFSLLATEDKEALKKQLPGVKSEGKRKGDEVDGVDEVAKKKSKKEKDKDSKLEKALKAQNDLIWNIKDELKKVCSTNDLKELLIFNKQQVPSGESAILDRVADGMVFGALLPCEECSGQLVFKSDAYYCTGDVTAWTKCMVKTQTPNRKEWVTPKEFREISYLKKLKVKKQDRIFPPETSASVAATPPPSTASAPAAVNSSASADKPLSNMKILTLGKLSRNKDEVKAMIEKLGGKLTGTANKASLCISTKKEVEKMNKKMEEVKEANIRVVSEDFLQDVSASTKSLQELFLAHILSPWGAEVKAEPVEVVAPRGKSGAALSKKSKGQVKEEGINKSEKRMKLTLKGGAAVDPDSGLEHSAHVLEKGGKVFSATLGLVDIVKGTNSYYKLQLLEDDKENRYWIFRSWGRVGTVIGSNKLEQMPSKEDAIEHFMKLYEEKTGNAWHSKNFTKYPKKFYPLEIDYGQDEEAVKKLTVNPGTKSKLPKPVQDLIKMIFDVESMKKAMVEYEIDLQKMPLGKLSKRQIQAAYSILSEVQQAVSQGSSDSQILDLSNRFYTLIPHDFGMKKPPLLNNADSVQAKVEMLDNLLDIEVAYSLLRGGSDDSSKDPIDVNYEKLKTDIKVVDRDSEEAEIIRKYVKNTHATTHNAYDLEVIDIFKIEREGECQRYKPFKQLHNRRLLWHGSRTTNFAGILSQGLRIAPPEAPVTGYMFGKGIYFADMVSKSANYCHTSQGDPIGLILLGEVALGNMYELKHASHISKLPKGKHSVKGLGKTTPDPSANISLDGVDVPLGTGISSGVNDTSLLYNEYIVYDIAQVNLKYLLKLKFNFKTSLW

In turn, `O=C(c1cc(Cc2n[nH]c(=O)c3ccccc23)ccc1F)N1CCN(c2ccccn2)CC1` had an IC50 in test [1] of 3 nM.

Regarding `O=C(c1cc(Cc2n[nH]c(=O)c3ccccc23)ccc1F)N1CCn2cnnc2C1`, the IC50 in test [2] amounted to 5000 nM.

In test [3], `O=C(Nc1cccc2cnn(-c3cccc(C(F)(F)F)c3)c(=O)c12)c1cccc(CN2CCOCC2)n1` came in with an EC1.5 of less than 5 µM.

`O=C(Nc1ccc(-c2cccc(Cc3n[nH]c(=O)c4ccccc34)c2)cc1)C1CC1` had an IC50 in test [1] of 57 nM.

Take `O=C(Cn1nc(Cc2ccccc2)c2ccccc2c1=O)NNS(=O)(=O)c1ccccc1`: the half-inhibitory concentration (IC50) with HepG2 [4] stood at 17.4 µM; in the test on PC-3, 19.8 µM.

For the molecule `CCCC(CCC)C(=O)O` [VALPROIC ACID], the median effective dose (ED50) in the test filed under Mus musculus [5] is 1710 µmol/kg.

Consider `O=C1CCC(=O)N1c1cccc(Cc2n[nH]c(=O)c3ccccc23)c1`, for which the concentration for half-maximal inhibition (IC50) in test [1] was less than 3 nM. In addition, in the test with Mus musculus [6], the 50% effective dose (ED50) came out at 0.0016 µmol/kg.

In the case of `CN(C)CCn1nc(-c2ccccc2)c2ccccc2c1=O`, the MPE in the test on Mus musculus [7] came out at 39.61%.

In turn, `O=C(O)Cc1nn(Cc2nc3cc(C(F)(F)F)ccc3s2)c(=O)c2ncccc12` returned an IC50 in test [8] of 2.1 to 52 nM.

In test [1], `CCOC1CCN(C(=O)c2cc(Cc3n[nH]c(=O)c4ccccc34)ccc2F)CC1` gave an IC50 of 3 nM.

The molecule `O=C(Nc1cccc2cnn(-c3cccc(C(F)(F)F)c3)c(=O)c12)c1cnccn1` yielded an EC1.5 in [3] of less than 5 µM.

In [3], `O=C(Nc1cccc2cnn(-c3cccc(C(F)(F)F)c3)c(=O)c12)c1cccc(OCC(O)CO)n1` (stereo not drawn) returned an EC1.5 of less than 5 µM.

As for `O=C(O)Cc1nn(Cc2nc3cc(Br)ccc3s2)c(=O)c2ccccc12`, the 50% effective dose (ED50) with Rattus norvegicus was 3.6 mg/kg.

In test [3], `O=C(Nc1cccc2cnn(-c3cccc(OC(F)(F)F)c3)c(=O)c12)c1cccc(CN2CCOCC2)n1` registered an EC1.5 of less than 5 µM.

`O=C(O)Cc1nn(Cc2cc(F)cc(Br)c2)c(=O)c2ccccc12` showed an IC50 in [8] of 20 nM.

`O=C(O)CSc1nnc(Cn2[nH]c(=O)c3ccccc3c2=O)o1`: it took a dose of 184 µmol/kg to reach the 50% effect level in the test filed under Mus musculus [5] (ED50).

`CCOC(=O)CSc1nnc(Cn2[nH]c(=O)c3ccccc3c2=O)o1` gave a median effective dose (ED50) in the test filed under Mus musculus [5] of 193 µmol/kg.

Molecule `O=C(Nc1cccc2cnn(-c3cccc(OC(F)(F)F)c3)c(=O)c12)c1cccc(OCC(O)CO)n1` (stereo not drawn) displayed an EC1.5 in test [3] of less than 5 µM.

In turn, `O=C(Nc1cccc2cnn(-c3cccc(C(F)(F)F)c3)c(=O)c12)c1cscn1` displayed an EC1.5 in test [3] of less than 5 µM.

For `O=C(O)Cc1nn(Cc2nc3cc(C(F)(F)F)ccc3s2)c(=O)c2cc3ccccc3cc12`, in test [8], the IC50 was 46 nM.

`COC1CCN(C(=O)c2cc(Cc3n[nH]c(=O)c4ccccc34)ccc2F)CC1` [AZD2461]: in [1], 5 nM corresponded to half-maximal inhibition (IC50).

As to `O=C(Cn1nc(Cc2ccccc2)c2ccccc2c1=O)NNC(=S)Nc1ccccc1`, the figures for the half-inhibitory concentration (IC50) in the test with Ehrlich and in the test with HepG2 [9] were 20 nM and 10 nM, respectively.

In the case of `CC1C(=O)N(c2cccc(Cc3n[nH]c(=O)c4ccccc34)c2)C(=O)N1CCN1CCCCC1` (stereo not drawn), the 50% inhibitory concentration (IC50) in [1] stood at 2.8 nM.

With `CC1NC(=O)N(c2cccc(Cc3n[nH]c(=O)c4ccccc34)c2)C1=O` (stereo not drawn), in [1], the IC50 stood at 5 nM.

For `O=C(c1cc(Cc2n[nH]c(=O)c3ccccc23)cc2c1OCC2)N1CCn2c(nnc2C(F)(F)F)C1`, in test [2], the IC50 was determined as 1.7 nM.

As for `Cc1c(CC(=O)O)nn(Cc2nc3cc(F)cc(F)c3s2)c(=O)c1C`, the IC50 in [8] lay in the range of 3.2 to 5 nM.

`O=c1[nH]cc(F)c(=O)[nH]1` [FLUOROURACIL] came in with an IC50 in the test with PC-3 of 63.8 µM.

For the molecule `O=C(c1cc(Cc2n[nH]c(=O)c3ccccc23)ccc1F)N1CC2C(=O)N(Cc3ccccc3)C(=O)C2C1` (stereo not drawn), it took 0.5 nM to reach half-maximal inhibition in test [2] (IC50).

The molecule `CN1CC(=O)N(c2cccc(Cc3n[nH]c(=O)c4ccccc34)c2)C1=O` registered a half-inhibitory concentration (IC50) in test [1] of less than 10 nM. In addition, the ED50 with Mus musculus [6] was 0.00166 µmol/kg.

Consider `O=C(O)Cc1nn(Cc2nc3cc(F)cc(F)c3o2)c(=O)c2ccccc12`, for which the ED50 in the test on Rattus norvegicus came out at 5.6 mg/kg. In test [10], this molecule gave an IC50 of 3.2 to 52 nM.

Turning to `O=C(c1cc(Cc2n[nH]c(=O)c3ccccc23)ccc1F)N1CCNCC1`, the concentration for half-maximal inhibition (IC50) in test [1] is less than 20 nM.

Turning to `Cc1c(CC(=O)O)nn(Cc2nc3cc(C(F)(F)F)ccc3s2)c(=O)c1C`, the IC50 in test [8] was 10 to 16 nM.

On to `CC(=O)CNC(=O)Cn1nc(Cc2ccccc2)c2ccccc2c1=O`, for which the IC50 with HepG2 [9] came out at 10 nM.
